{
  "source": "patent US10870832B2",
  "about": "“Use of small molecules to enhance MAFA expression in pancreatic endocrine cells” (Janssen Biotech, Inc., priority 2014, dated 2020)",
  "assay_in_all_cases": "Kinase profiling of R428",
  "type_in_all_cases": "biochemical",
  "key": {"Aurora-A(h)": {"target": "T1, Aurora-A(h) (Homo sapiens, UniProt O14965)", "T1 sequence (O14965 1-403)": "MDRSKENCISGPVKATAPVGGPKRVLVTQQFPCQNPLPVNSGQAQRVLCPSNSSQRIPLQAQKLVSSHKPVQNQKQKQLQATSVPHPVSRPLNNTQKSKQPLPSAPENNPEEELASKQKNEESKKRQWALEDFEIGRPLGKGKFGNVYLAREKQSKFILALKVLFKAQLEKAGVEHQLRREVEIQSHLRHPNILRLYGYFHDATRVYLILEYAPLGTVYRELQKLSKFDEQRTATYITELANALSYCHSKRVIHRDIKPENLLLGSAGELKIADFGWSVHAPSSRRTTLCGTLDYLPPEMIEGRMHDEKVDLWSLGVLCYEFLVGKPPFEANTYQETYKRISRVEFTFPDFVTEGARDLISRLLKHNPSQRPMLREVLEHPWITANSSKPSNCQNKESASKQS", "settings": "for efficiency in targeting Aurora-A(h): 100 μM ATP, lower number = more robust inhibition", "protocol": "(§1) The efficiency of the AXL inhibitor R428 for targeting different kinases was assessed by Kinase Profiling Services using 100 μM ATP concentration (EMD Millipore). R428 was tested at 1 and 10 μM. Table IV lists the kinases profiled along with the efficiency in targeting the kinases with a lower number indicating a more robust inhibition of a particular kinase."}, "Blk(h)": {"target": "Blk(h) (Homo sapiens, UniProt P51451)", "sequence (P51451 whole entry)": "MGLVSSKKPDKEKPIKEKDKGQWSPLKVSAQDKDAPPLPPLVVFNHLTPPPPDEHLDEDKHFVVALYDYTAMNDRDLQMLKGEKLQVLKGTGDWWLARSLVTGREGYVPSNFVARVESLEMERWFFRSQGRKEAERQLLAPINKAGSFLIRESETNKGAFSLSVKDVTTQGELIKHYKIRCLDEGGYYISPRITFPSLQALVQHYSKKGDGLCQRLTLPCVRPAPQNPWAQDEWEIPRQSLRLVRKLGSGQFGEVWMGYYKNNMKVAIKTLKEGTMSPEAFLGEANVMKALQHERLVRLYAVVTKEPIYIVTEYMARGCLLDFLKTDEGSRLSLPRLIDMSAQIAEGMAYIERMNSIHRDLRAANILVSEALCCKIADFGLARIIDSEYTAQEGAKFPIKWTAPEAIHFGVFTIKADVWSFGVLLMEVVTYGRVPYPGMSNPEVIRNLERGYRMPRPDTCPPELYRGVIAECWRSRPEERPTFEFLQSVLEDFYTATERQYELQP", "settings": "100 μM ATP, lower number = more robust inhibition", "protocol": "as §1"}, "CDK1/cyclinB (Hh)": {"target": "CDK1/cyclinB (Hh) (Homo sapiens, UniProt P06493)", "sequence (P06493 whole entry)": "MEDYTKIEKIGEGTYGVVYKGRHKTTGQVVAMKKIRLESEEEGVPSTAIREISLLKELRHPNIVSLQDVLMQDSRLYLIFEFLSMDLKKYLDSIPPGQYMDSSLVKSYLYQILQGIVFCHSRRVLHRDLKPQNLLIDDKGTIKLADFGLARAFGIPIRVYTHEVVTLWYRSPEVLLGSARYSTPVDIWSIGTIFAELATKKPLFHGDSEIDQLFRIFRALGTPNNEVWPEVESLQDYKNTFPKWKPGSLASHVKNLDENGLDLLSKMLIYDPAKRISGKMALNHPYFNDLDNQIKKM", "sequence (P14635 whole entry partner)": "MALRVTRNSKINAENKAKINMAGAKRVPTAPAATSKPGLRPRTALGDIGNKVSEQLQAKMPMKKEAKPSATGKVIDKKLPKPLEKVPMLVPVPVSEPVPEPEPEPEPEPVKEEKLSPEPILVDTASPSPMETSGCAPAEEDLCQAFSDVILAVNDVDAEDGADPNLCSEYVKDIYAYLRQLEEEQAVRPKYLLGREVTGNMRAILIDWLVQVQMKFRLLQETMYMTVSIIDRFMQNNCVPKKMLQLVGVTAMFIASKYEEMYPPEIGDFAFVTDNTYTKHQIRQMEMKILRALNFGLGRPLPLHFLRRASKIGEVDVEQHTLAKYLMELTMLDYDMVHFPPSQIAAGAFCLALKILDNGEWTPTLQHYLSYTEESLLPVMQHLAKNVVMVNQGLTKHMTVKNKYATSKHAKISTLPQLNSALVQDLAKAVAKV", "settings": "100 μM ATP, lower number = more robust inhibition", "protocol": "as §1"}, "CK2(h)": {"target": "CK2(h) (Homo sapiens, UniProt P68400)", "sequence (P68400 whole entry)": "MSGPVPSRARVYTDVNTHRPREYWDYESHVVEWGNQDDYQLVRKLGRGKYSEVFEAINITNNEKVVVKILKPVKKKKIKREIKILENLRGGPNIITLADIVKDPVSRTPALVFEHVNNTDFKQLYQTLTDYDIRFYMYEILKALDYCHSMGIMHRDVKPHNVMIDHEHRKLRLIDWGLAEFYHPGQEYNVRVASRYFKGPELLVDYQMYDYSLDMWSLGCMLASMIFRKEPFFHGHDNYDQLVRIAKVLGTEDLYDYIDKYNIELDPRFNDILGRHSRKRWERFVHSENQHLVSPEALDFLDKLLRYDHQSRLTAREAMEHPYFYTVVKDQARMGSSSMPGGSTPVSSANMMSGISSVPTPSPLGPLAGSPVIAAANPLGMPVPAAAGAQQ", "sequence (P67870 whole entry partner)": "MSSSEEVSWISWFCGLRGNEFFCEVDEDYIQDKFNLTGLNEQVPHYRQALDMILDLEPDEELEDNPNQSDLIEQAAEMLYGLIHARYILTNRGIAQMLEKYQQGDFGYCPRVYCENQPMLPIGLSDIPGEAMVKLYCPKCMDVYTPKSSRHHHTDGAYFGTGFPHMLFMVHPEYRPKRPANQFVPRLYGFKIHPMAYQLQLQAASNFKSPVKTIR", "settings": "100 μM ATP, lower number = more robust inhibition", "protocol": "as §1"}, "CLK2(h)": {"target": "CLK2(h) (Homo sapiens, UniProt P49760)", "settings": "100 μM ATP, lower number = more robust inhibition", "protocol": "as §1"}, "EGFR(h)": {"target": "EGFR(h) (Homo sapiens, UniProt P00533)", "settings": "100 μM ATP, lower number = more robust inhibition", "protocol": "as §1"}, "FGFR1(h)": {"target": "FGFR1(h) (Homo sapiens, UniProt P11362)", "sequence (P11362 22-822)": "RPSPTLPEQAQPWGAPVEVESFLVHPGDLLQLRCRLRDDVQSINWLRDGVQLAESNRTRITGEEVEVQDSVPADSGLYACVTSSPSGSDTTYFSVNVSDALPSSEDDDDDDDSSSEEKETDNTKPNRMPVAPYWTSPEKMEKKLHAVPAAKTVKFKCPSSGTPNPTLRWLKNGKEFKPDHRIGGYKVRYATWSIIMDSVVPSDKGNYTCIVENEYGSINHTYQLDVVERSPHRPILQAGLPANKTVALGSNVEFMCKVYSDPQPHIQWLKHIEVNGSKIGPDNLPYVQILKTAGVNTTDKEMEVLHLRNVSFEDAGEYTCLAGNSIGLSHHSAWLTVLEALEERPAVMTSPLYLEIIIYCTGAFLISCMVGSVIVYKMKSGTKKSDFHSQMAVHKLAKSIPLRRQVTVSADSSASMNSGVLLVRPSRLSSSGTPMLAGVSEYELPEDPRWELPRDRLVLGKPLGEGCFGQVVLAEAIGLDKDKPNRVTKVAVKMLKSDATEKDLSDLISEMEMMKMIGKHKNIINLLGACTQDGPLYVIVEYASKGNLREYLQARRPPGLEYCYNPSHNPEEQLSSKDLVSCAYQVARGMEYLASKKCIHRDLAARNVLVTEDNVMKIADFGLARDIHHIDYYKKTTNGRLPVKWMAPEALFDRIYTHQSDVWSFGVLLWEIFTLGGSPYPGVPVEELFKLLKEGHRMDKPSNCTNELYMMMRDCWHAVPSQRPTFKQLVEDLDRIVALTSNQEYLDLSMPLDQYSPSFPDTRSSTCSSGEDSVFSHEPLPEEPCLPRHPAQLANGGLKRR", "settings": "for efficiency in targeting FGFR1(h): 100 μM ATP, lower number = more robust inhibition", "protocol": "as §1"}, "IKKβ(h)": {"target": "IKKβ(h) (Homo sapiens, UniProt O14920)", "sequence (O14920 whole entry)": "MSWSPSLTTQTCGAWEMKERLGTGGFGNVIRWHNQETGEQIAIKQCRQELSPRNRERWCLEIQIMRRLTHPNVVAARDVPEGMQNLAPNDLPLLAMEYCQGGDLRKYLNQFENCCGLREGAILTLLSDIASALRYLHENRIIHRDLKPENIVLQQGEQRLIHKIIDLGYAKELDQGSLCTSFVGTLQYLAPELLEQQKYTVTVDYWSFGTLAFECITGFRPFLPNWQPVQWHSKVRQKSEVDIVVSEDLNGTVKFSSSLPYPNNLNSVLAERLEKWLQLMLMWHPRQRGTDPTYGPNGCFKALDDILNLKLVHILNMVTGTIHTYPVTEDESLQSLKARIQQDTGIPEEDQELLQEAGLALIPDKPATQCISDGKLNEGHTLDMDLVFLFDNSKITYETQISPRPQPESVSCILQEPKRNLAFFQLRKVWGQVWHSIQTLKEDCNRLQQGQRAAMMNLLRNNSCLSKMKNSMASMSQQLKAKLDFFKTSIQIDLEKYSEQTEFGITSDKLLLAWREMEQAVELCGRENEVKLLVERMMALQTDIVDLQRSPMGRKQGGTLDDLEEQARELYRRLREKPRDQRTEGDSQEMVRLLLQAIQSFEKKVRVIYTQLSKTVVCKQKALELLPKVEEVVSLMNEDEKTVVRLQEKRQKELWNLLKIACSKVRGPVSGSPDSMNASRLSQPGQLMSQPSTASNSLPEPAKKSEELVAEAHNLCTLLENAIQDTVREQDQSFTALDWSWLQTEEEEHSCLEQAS", "settings": "100 μM ATP, lower number = more robust inhibition", "protocol": "as §1"}, "MAPK1(h)": {"target": "MAPK1(h) (Homo sapiens, UniProt P27361)", "sequence (P27361 2-379 limits assumed)": "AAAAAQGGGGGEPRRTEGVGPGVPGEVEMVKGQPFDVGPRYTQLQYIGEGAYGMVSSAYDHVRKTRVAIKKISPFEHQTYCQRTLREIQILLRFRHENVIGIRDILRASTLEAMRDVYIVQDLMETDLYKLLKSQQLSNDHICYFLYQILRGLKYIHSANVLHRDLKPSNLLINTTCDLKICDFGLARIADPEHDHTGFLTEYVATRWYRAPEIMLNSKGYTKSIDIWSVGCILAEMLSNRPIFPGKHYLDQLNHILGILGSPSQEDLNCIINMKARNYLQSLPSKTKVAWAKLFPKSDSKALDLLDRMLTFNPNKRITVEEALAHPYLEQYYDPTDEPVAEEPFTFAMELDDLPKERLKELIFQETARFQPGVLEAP", "settings": "100 μM ATP, lower number = more robust inhibition", "protocol": "as §1"}, "Plk1(h)": {"target": "Plk1(h) (Homo sapiens, UniProt P53350)", "sequence (P53350 whole entry)": "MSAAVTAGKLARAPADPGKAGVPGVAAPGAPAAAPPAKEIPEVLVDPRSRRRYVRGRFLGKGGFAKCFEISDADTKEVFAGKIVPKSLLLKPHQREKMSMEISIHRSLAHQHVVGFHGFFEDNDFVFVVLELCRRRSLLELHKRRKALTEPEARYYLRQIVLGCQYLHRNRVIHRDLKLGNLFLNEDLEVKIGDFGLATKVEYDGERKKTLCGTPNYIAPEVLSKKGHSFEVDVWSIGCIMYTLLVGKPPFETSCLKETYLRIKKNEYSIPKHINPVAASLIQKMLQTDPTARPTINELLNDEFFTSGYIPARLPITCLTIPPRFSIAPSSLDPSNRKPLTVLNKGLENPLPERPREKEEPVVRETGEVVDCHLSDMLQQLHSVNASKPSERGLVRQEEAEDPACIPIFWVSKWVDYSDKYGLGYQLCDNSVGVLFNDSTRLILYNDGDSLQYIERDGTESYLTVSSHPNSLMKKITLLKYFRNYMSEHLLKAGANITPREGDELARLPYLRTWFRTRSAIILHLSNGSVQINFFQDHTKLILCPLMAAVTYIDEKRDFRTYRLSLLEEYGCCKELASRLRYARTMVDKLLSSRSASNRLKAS", "settings": "100 μM ATP, lower number = more robust inhibition", "protocol": "as §1"}, "Plk3(h)": {"target": "Plk3(h) (Homo sapiens, UniProt Q9H4B4)", "settings": "100 μM ATP, lower number = more robust inhibition", "protocol": "as §1"}, "SAPK3(h)": {"target": "SAPK3(h) (Homo sapiens, UniProt P53778)", "sequence (P53778 whole entry)": "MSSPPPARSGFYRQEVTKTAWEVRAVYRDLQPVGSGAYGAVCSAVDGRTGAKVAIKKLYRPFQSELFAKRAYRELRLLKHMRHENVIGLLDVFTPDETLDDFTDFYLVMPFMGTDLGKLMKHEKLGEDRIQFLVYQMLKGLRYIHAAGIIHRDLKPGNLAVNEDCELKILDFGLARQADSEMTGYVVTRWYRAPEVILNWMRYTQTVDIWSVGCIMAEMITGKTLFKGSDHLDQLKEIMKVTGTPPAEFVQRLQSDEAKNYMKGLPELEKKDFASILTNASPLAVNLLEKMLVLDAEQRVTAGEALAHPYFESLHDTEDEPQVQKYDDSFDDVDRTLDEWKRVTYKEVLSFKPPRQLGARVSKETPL", "settings": "100 μM ATP, lower number = more robust inhibition", "protocol": "as §1"}, "ZAP-70(h)": {"target": "ZAP-70(h) (Homo sapiens, UniProt P43403)", "settings": "100 μM ATP, lower number = more robust inhibition", "protocol": "as §1"}},
  "data": [
    {"smiles": "Nc1nc(Nc2ccc3c(c2)CC[C@@H](N2CCCC2)CC3)nn1-c1cc2c(nn1)-c1ccccc1CCC2", "note": "[R428, 1H-1,2,4-Triazole-3,5-diamine, 1-(6,7-dihydro-5H-benzo[6,7]cyclohepta[1,2-c]pyridazin-3-yl) N3-[(7S)-6,7,8,9-tetrahydro-7-(1-pyrrolidinyl)-5H-benzocyclohepten-2-yl]-]", "values": [
      {"measurement": "efficiency in targeting Aurora-A(h)", "setting": "Aurora-A(h); R428 @ 1 μM", "result": 20},
      {"measurement": "efficiency in targeting Aurora-A(h)", "setting": "Aurora-A(h); R428 @ 10 μM", "result": 3},
      {"measurement": "inhibition of AuroraA (in words)", "setting": "Aurora-A(h); at 1 and 10 μM", "result": "potently inhibits"},
      {"measurement": "efficiency in targeting Blk(h)", "setting": "Blk(h); R428 @ 1 μM", "result": 27},
      {"measurement": "efficiency in targeting Blk(h)", "setting": "Blk(h); R428 @ 10 μM", "result": 2},
      {"measurement": "efficiency in targeting CDK1/cyclinB (Hh)", "setting": "CDK1/cyclinB (Hh); R428 @ 1 μM", "result": 101},
      {"measurement": "efficiency in targeting CDK1/cyclinB (Hh)", "setting": "CDK1/cyclinB (Hh); R428 @ 10 μM", "result": 88},
      {"measurement": "efficiency in targeting CK2(h)", "setting": "CK2(h); R428 @ 1 μM", "result": 103},
      {"measurement": "efficiency in targeting CK2(h)", "setting": "CK2(h); R428 @ 10 μM", "result": 106},
      {"measurement": "efficiency in targeting CLK2(h)", "setting": "CLK2(h); R428 @ 1 μM", "result": 78},
      {"measurement": "efficiency in targeting CLK2(h)", "setting": "CLK2(h); R428 @ 10 μM", "result": 28},
      {"measurement": "efficiency in targeting EGFR(h)", "setting": "EGFR(h); R428 @ 1 μM", "result": 89},
      {"measurement": "efficiency in targeting EGFR(h)", "setting": "EGFR(h); R428 @ 10 μM", "result": 40},
      {"measurement": "efficiency in targeting FGFR1(h)", "setting": "FGFR1(h); R428 @ 1 μM", "result": 17},
      {"measurement": "efficiency in targeting FGFR1(h)", "setting": "FGFR1(h); R428 @ 10 μM", "result": 1},
      {"measurement": "inhibition of FGFr1 (in words)", "setting": "FGFR1(h); at 1 and 10 μM", "result": "potently inhibits"},
      {"measurement": "efficiency in targeting IKKβ(h)", "setting": "IKKβ(h); R428 @ 1 μM", "result": 86},
      {"measurement": "efficiency in targeting IKKβ(h)", "setting": "IKKβ(h); R428 @ 10 μM", "result": 53},
      {"measurement": "efficiency in targeting MAPK1(h)", "setting": "MAPK1(h); R428 @ 1 μM", "result": 108},
      {"measurement": "efficiency in targeting MAPK1(h)", "setting": "MAPK1(h); R428 @ 10 μM", "result": 106},
      {"measurement": "efficiency in targeting Plk1(h)", "setting": "Plk1(h); R428 @ 1 μM", "result": 83},
      {"measurement": "efficiency in targeting Plk1(h)", "setting": "Plk1(h); R428 @ 10 μM", "result": 65},
      {"measurement": "efficiency in targeting Plk3(h)", "setting": "Plk3(h); R428 @ 1 μM", "result": 101},
      {"measurement": "efficiency in targeting Plk3(h)", "setting": "Plk3(h); R428 @ 10 μM", "result": 81},
      {"measurement": "efficiency in targeting SAPK3(h)", "setting": "SAPK3(h); R428 @ 1 μM", "result": 106},
      {"measurement": "efficiency in targeting SAPK3(h)", "setting": "SAPK3(h); R428 @ 10 μM", "result": 108},
      {"measurement": "efficiency in targeting ZAP-70(h)", "setting": "ZAP-70(h); R428 @ 1 μM", "result": 92},
      {"measurement": "efficiency in targeting ZAP-70(h)", "setting": "ZAP-70(h); R428 @ 10 μM", "result": 66}
    ]}
  ]
}
